Results from US20200079758A1, “[4-(PHENYLSULFONYL)PIPERAZIN-1-YL](1H-1,2,3-TRIAZOL-4-YL)METHANONES” (priority 2016, published 2020).

biological target: T1, recombinant human AKR1C3 (Homo sapiens, UniProt P42330); assay: AKR1C3-inhibitory activity assay (generation of Coumberol from Coumberone); type: biochemical; conditions: Coumberone 0.3 μM, NADPH 10 μM, 22° C., typically 90 min, average or median values
T1 construct: GST (cleaved yes); made in house; host or cells: E. coli
T1 sequence (P42330 1-323): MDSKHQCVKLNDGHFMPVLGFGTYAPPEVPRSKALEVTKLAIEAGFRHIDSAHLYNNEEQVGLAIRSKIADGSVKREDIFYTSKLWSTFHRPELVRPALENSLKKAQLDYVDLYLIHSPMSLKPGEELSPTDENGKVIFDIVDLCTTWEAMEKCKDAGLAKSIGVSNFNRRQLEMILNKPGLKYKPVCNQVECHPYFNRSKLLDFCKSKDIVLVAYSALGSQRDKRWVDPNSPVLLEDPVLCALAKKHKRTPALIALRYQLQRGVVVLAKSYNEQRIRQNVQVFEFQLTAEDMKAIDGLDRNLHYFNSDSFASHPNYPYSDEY
Outline: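 Recombinant human AKR1C3 (E. coli GST fusion, GST removed; ~1 nM) preincubated 15 min with compound, then NADPH 10 μM and Coumberone 0.3 μM (final), 22 °C, typically 90 min, in 50 mM K-phosphate pH 7. Stopped with EM-1404 (1 μM final); Coumberol fluorescence read at 520 nm (ex 380 nm), normalized to no-inhibitor and no-enzyme controls.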

Row | IC50 [nM] | Structure (SMILES)
1 | 32 | C[C@@H]1CN(C(=O)c2cnn[nH]2)[C@@H](C)CN1S(=O)(=O)c1cccc(S(C)(=O)=O)c1 [Example 81, [(2S,5R)-2,5-dimethyl-4-{[3-(methylsulfonyl)phenyl]sulfonyl}piperazin-1-yl](1H-1,2,3-triazol-5-yl)methanone]
2 | 2 | C[C@@H]1CN(C(=O)c2cnn[nH]2)[C@@H](C)CN1S(=O)(=O)c1ccc(F)c(F)c1 [Example 82, {(2S,5R)-4-[(3,4-difluorophenyl)sulfonyl]-2,5-dimethylpiperazin-1-yl}(1H-1,2,3-triazol-5-yl)methanone]
3 | 3 | C[C@@H]1CN(C(=O)c2cnn[nH]2)[C@@H](C)CN1S(=O)(=O)c1cccc(C#N)c1 [Example 83, 3-{[(2R,5S)-2,5-dimethyl-4-(1H-1,2,3-triazol-5-ylcarbonyl)piperazin-1-yl]sulfonyl}benzonitrile]
4 | 37 | C[C@@H]1CN(C(=O)c2cnn[nH]2)[C@@H](C)CN1S(=O)(=O)c1ccccc1S(C)(=O)=O [Example 84, [(2S,5R)-2,5-dimethyl-4-{[2-(methylsulfonyl)phenyl]sulfonyl}piperazin-1-yl](1H-1,2,3-triazol-5-yl)methanone]
5 | 2 | C[C@@H]1CN(C(=O)c2cnn[nH]2)[C@@H](C)CN1S(=O)(=O)c1cccc(OC(F)(F)F)c1 [Example 85, [(2S,5R)-2,5-dimethyl-4-{[3-(trifluoromethoxy)phenyl]sulfonyl}piperazin-1-yl](1H-1,2,3-triazol-5-yl)methanone]
6 | 32 | C[C@@H]1CN(C(=O)c2cnn[nH]2)[C@@H](C)CN1S(=O)(=O)c1ccccc1-c1ccccc1 [Example 86, [(2S,5R)-4-(biphenyl-2-ylsulfonyl)-2,5-dimethylpiperazin-1-yl](1H-1,2,3-triazol-5-yl)methanone]
7 | 2 | COc1cccc(S(=O)(=O)N2C[C@H](C)N(C(=O)c3cnn[nH]3)C[C@H]2C)c1 [Example 87, {(2S,5R)-4-[(3-methoxyphenyl)sulfonyl]-2,5-dimethylpiperazin-1-yl}(1H-1,2,3-triazol-5-yl)methanone]
8 | 79 | C[C@@H]1CN(C(=O)c2cnn[nH]2)[C@@H](C)CN1S(=O)(=O)Cc1c(F)cccc1F [Example 88, {(2S,5R)-4-[(2,6-difluorobenzyl)sulfonyl]-2,5-dimethylpiperazin-1-yl}(1H-1,2,3-triazol-5-yl)methanone]
9 | 2 | C[C@@H]1CN(C(=O)c2cnn[nH]2)[C@@H](C)CN1S(=O)(=O)c1cc(Cl)ccc1C(F)(F)F [Example 89, [(2S,5R)-4-{[5-chloro-2-(trifluoromethyl)phenyl]sulfonyl}-2,5-dimethylpiperazin-1-yl](1H-1,2,3-triazol-5-yl)methanone]
10 | 5 | C[C@@H]1CN(C(=O)c2cnn[nH]2)[C@@H](C)CN1S(=O)(=O)c1cc(C(F)(F)F)cc(C(F)(F)F)c1 [Example 90, [(2S,5R)-4-{[3,5-bis(trifluoromethyl)phenyl]sulfonyl}-2,5-dimethylpiperazin-1-yl](1H-1,2,3-triazol-5-yl)methanone]
11 | 1 | C[C@@H]1CN(C(=O)c2cnn[nH]2)[C@@H](C)CN1S(=O)(=O)c1ccc(F)c(Cl)c1 [Example 91, {(2S,5R)-4-[(3-chloro-4-fluorophenyl)sulfonyl]-2,5-dimethylpiperazin-1-yl}(1H-1,2,3-triazol-5-yl)methanone]
12 | 1 | Cc1cc(C)cc(S(=O)(=O)N2C[C@H](C)N(C(=O)c3cnn[nH]3)C[C@H]2C)c1 [Example 92, {(2S,5R)-4-[(3,5-dimethylphenyl)sulfonyl]-2,5-dimethylpiperazin-1-yl}(1H-1,2,3-triazol-5-yl)methanone]
13 | 30 | C[C@@H]1CN(S(=O)(=O)c2ccc(Br)cc2)C[C@H](C)N1C(=O)c1cnn[nH]1 [Example 93, {(2R,6S)-4-[(4-bromophenyl)sulfonyl]-2,6-dimethylpiperazin-1-yl}(1H-1,2,3-triazol-5-yl)methanone]
14 | 20 | C[C@@H]1CN(S(=O)(=O)c2ccc(Cl)cc2)C[C@H](C)N1C(=O)c1cnn[nH]1 [Example 95, {(2R,6S)-4-[(4-chlorophenyl)sulfonyl]-2,6-dimethylpiperazin-1-yl}(1H-1,2,3-triazol-5-yl)methanone]
15 | 2 | C[C@@H]1CN(S(=O)(=O)c2cccc3ccccc23)C[C@H](C)N1C(=O)c1cnn[nH]1 [Example 96, [(2R,6S)-2,6-dimethyl-4-(naphthalen-1-ylsulfonyl)piperazin-1-yl](1H-1,2,3-triazol-5-yl)methanone]
16 | 151 | COc1ccc(S(=O)(=O)N2C[C@@H](C)N(C(=O)c3cnn[nH]3)[C@@H](C)C2)cc1 [Example 97, {(2R,6S)-4-[(4-methoxyphenyl)sulfonyl]-2,6-dimethylpiperazin-1-yl}(1H-1,2,3-triazol-5-yl)methanone]

Row | IC50 [nM] | Structure (SMILES)
17 | 56 | C[C@@H]1CN(S(=O)(=O)c2cc(C(F)(F)F)cc(C(F)(F)F)c2)C[C@H](C)N1C(=O)c1cnn[nH]1 [Example 98, [(2R,6S)-4-{[3,5-bis(trifluoromethyl)phenyl]sulfonyl}-2,6-dimethylpiperazin-1-yl](1H-1,2,3-triazol-5-yl)methanone]
18 | 3 | Cc1ccc(C)c(S(=O)(=O)N2C[C@@H](C)N(C(=O)c3cnn[nH]3)[C@@H](C)C2)c1 [Example 99, {(2R,6S)-4-[(2,5-dimethylphenyl)sulfonyl]-2,6-dimethylpiperazin-1-yl}(1H-1,2,3-triazol-5-yl)methanone]
19 | 20 | C[C@@H]1CN(S(=O)(=O)c2ccc(F)c(Cl)c2)C[C@H](C)N1C(=O)c1cnn[nH]1 [Example 100, {(2R,6S)-4-[(3-chloro-4-fluorophenyl)sulfonyl]-2,6-dimethylpiperazin-1-yl}(1H-1,2,3-triazol-5-yl)methanone]
20 | 399 | C[C@@H]1CN(S(=O)(=O)c2ccc(OC(F)(F)F)cc2)C[C@H](C)N1C(=O)c1cnn[nH]1 [Example 101, [(2R,6S)-2,6-dimethyl-4-{[4-(trifluoromethoxy)phenyl]sulfonyl}piperazin-1-yl](1H-1,2,3-triazol-5-yl)methanone]
21 | 1 | C[C@@H]1CN(S(=O)(=O)c2ccccc2Br)C[C@H](C)N1C(=O)c1cnn[nH]1 [Example 102, {(2R,6S)-4-[(2-bromophenyl)sulfonyl]-2,6-dimethylpiperazin-1-yl}(1H-1,2,3-triazol-5-yl)methanone]
22 | 2 | Cc1c(Cl)cccc1S(=O)(=O)N1C[C@@H](C)N(C(=O)c2cnn[nH]2)[C@@H](C)C1 [Example 103, {(2R,6S)-4-[(3-chloro-2-methylphenyl)sulfonyl]-2,6-dimethylpiperazin-1-yl}(1H-1,2,3-triazol-5-yl)methanone]
23 | 34 | C[C@@H]1CN(S(=O)(=O)c2cccc(OC(F)(F)F)c2)C[C@H](C)N1C(=O)c1cnn[nH]1 [Example 106, [(2R,6S)-2,6-dimethyl-4-{[3-(trifluoromethoxy)phenyl]sulfonyl}piperazin-1-yl](1H-1,2,3-triazol-5-yl)methanone]
24 | 245 | C[C@@H]1CN(S(=O)(=O)c2ccccc2-c2ccccc2)C[C@H](C)N1C(=O)c1cnn[nH]1 [Example 107, [(2R,6S)-4-(biphenyl-2-ylsulfonyl)-2,6-dimethylpiperazin-1-yl](1H-1,2,3-triazol-5-yl)methanone]
25 | 40 | COc1cccc(S(=O)(=O)N2C[C@@H](C)N(C(=O)c3cnn[nH]3)[C@@H](C)C2)c1 [Example 108, {(2R,6S)-4-[(3-methoxyphenyl)sulfonyl]-2,6-dimethylpiperazin-1-yl}(1H-1,2,3-triazol-5-yl)methanone]
26 | 4 | CC1(C)CN(C(=O)c2cnn[nH]2)CCN1S(=O)(=O)c1ccc(Br)cc1 [Example 109, {4-[(4-bromophenyl)sulfonyl]-3,3-dimethylpiperazin-1-yl}(1H-1,2,3-triazol-5-yl)methanone]
27 | 5 | CC1(C)CN(C(=O)c2cnn[nH]2)CCN1S(=O)(=O)c1ccc(Cl)cc1 [Example 110, {4-[(4-chlorophenyl)sulfonyl]-3,3-dimethylpiperazin-1-yl}(1H-1,2,3-triazol-5-yl)methanone]
28 | 89 | CC1(C)CN(C(=O)c2cnn[nH]2)CCN1S(=O)(=O)c1ccc([N+](=O)[O-])cc1 [Example 111, {3,3-dimethyl-4-[(4-nitrophenyl)sulfonyl]piperazin-1-yl}(1H-1,2,3-triazol-5-yl)methanone]
29 | 24 | CC1(C)CN(C(=O)c2cnn[nH]2)CCN1S(=O)(=O)c1cccc([N+](=O)[O-])c1 [Example 112, {3,3-dimethyl-4-[(3-nitrophenyl)sulfonyl]piperazin-1-yl}(1H-1,2,3-triazol-5-yl)methanone]
30 | 39 | Cc1cc(C)c(S(=O)(=O)N2CCN(C(=O)c3cnn[nH]3)CC2(C)C)c(C)c1 [Example 113, {3,3-dimethyl-4-[(2,4,6-trimethylphenyl)sulfonyl]piperazin-1-yl}(1H-1,2,3-triazol-5-yl)methanone]
31 | 10 | CC1(C)CN(C(=O)c2cnn[nH]2)CCN1S(=O)(=O)c1ccccc1[N+](=O)[O-] [Example 114, {3,3-dimethyl-4-[(2-nitrophenyl)sulfonyl]piperazin-1-yl}(1H-1,2,3-triazol-5-yl)methanone]
32 | 208 | COc1ccc(OC)c(S(=O)(=O)N2CCN(C(=O)c3cnn[nH]3)CC2(C)C)c1 [Example 115, {4-[(2,5-dimethoxyphenyl)sulfonyl]-3,3-dimethylpiperazin-1-yl}(1H-1,2,3-triazol-5-yl)methanone]
